Results from patent US20230165865A1, “HETEROARYLDIHYDROPYRIMIDINE DERIVATIVES AND METHODS OF TREATING HEPATITIS B INFECTIONS” (Janssen Pharmaceutica NV, priority 2018, published 2023).
Where two headings read alike, the source gives them in different places.

Columns and labels:
[1] = tested on: HBV; assay: Anti-viral assay in HepG2.2.15 cells: anti-HBV activity, HBV DNA in culture medium by qPCR; assay type: cell-based; settings: HepG2.2.15 cells, 6 days treatment, HBV DNA by qPCR, read-out: EC50
Experimental: (§1) HepG2.2.15 (the HepG2.2.15 cell line can be produced by transfection of the HepG2 cell line as described in Sells, Chen, and Acs 1987 (Proc. Natl. Acad. Sci. USA 84: 1005-1009), and the HepG2 cell line is available from ATCC® under number HB-8065™)
(§2) HepG2.2.15 cells were plated into 96-well plate in 2% FBS culture medium at the density of 40,000 cells/well and 5,000cells/well for HBV inhibitory activity and cytotoxicity determination, respectively. After incubation at 37° C., 5% CO2 overnight, cells were treated with medium containing compounds for 6 days with medium and compounds refreshed after 3 days of treatment. Each compound was tested in a 1:3 serial dilutions at 8 different concentrations in triplicate. The highest concentration of the compounds was 10 uM or 1 uM for anti-HBV activity assay and 100 uM for cytotoxicity determination.
The change of HBV DNA level induced by the compounds was assessed by quantitative real-time polymerase chain reaction (qPCR). Briefly, the HBV DNA in the culture medium was extracted using QIAamp 96 DNA Blood Kit according to the manual and then quantified by real-time PCR assay using the primers and probe in the table 1 below.
(§3) EC50 and CC50 values are calculated by the […] PRISM software.

[2] = tested on: HepG2.2.15 cells; assay: Cytotoxicity determination in HepG2.2.15 cells (CCK-8 assay); assay type: cell-based; settings: 6 days treatment, CCK-8, highest concentration 100 uM
Experimental: as §1, §2
(§4) Cell viability was determined by CCK-8 assay. After 6 days of compounds treatment, 20 μl CCK-8 reagents were added to each well of cytotoxicity assay plates. Cell plates were incubated at 37° C., 5% CO2 for 2.5 h. The absorbance at 450 nm wavelength and the absorbance at 630 nm wavelength as reference was measured.
as §3

[3] = tested on: human hepatocytes; assay: Metabolic stability of test compound in human hepatocyte cell; assay type: in vitro ADME; settings: human hepatocytes
Experimental: • 1. The cryopreserved human hepatocytes cells were thawed in 37° C. water bath and diluted with pre-warmed incubation medium to a working cell density of 1×10^6 viable cells/mL. • 2. The 198 μL pre-warmed hepatocyte suspensions were spiked with 2 μL of 100 μM compound or reference compound(Verapamil) at a final concentration of 1.0 μM in a 96-well plate. The plate was incubated at 37° C., 900 rpm. All incubations will be performed in singlet. • 3. 25 μL aliquots of well contents were collected at time points of 0, 15, 30, 60, 90 and 120 minutes. The reactions were stopped by the addition of 6-fold volumes of cold acetonitrile with internal standards. • 4. After centrifugation for 25 minutes at 3,220 g. Aliquot of 100 μL of the supernatant was mixed with 100 μL of ultra-pure H2O and then used for LC-MS/MS analysis.
All calculations were carried out using Microsoft Excel. Peak areas were determined from extracted ion chromatograms. Determine the in vitro half-life (t1/2) of parent compound by regression analysis of the percent parent disappearance vs. time curve.
The in vitro half-life (in vitro t1/2) is determined from the slope value k:
Conversion of the in vitro t1/2(in min) into the in vitro intrinsic clearance (in vitro CLint, in μL/min/10^6 cells) is done using the following equation:
V=incubation volume (0.2 mL);
N=number of hepatocytes per well (0.2×10^6 cells).
Conversion of the in vitro t1/2(in min) into the scale-up intrinsic clearance (CLint(liver), in mL/min/kg) was done using the following equation:
CLint(liver)=kV/N×scaling factor

[4] = Pharmacokinetic and tissue distribution study via intravenous and oral administration in male C57BL/6 mice; assay type: in vivo
Experimental: Male C57BL/6 mice with a weight range of 20-25 g (Hua Fu Kang, China) were used. Animals were fasted overnight and free access to food 4 hours after dosing.
Test compound (correction factor: 1.00) was dissolved in a 20% hydroxypropyl-β-cyclodextrin (HP-β-CD) at a final concentration of 1 mg/ml for the intravenous (IV) formulation and at final concentrations of 0.5 mg/ml for the oral (PO) formulation. The intravenous formulation was dosed at 2 ml/kg to obtain a dose of 2 mg/kg. The oral formulations were dosed at 10 ml/kg to obtain final doses of 5 mg/kg.
Blood samples were taken at 7 and 20 min, 1, 2, 4, 8 and 24 h after intravenous dose administration. Blood and liver samples were taken at 30 min, 1, 2, 4, 8, 12 and 24 h after oral dose administration.
Approximately 0.020 mL blood will be collected into BD blood collection tubes containing K3-EDTA at each time point. Samples were placed immediately on melting ice and plasma was obtained following centrifugation at 4° C. for 5 minutes at approximately 4000×g. Plasma samples were adjusted to pH 3-4 by phosphoric acid and stored at −75±15° C. prior to analysis. The whole process was completed within 1 hour.
Liver samples were collected at adopted time point, and the vial containing the tissues sample was snap-frozen in liquid nitrogen right away and kept at −75±15° C. prior to analysis. All liver samples were weighed and homogenized with phosphoric acid solution (pH to 3-4) by liver weight (g) to phosphoric acid solution volume (mL) ratio 1:4 before analysis.
Plasma and liver samples were analyzed using LC-MS/MS methods. The lower limit of quantification (LLOQ) for plasma was 1.0 ng/ml and for liver was 2.5 ng/g. A non-compartmental analysis using the “Linear up log down” rule was used for all data. A limited pharmacokinetic analysis was performed using Phoenix™ Professional (Version 6.1).

[5] = Cytotoxicity determination in HepG2.2.15 cells (CCK-8 assay); assay type: cell-based; settings: human, 6 days treatment, CCK-8, highest concentration 100 uM
Experimental: as §1, §2, §4, §3

[6] = mice plasma, IV, nominal 2 mg/kg
[7] = Hepatitis B virus, HepG2.2.15, 144 h

SMILES	EC50 [1] [nM]	CC50 [2] [nM]	further results
CCOC(=O)C1=C(CN2CCN3C(=S)N([C@@H]4CC[C@H](C(=O)O)C4)CC3C2)NC(c2nccs2)=N[C@H]1c1cccc(F)c1C (single isomer, unassigned) [Compound 24B]	1	9600	
CCOC(=O)C1=C(CN2CCOCC2)NC(c2nccs2)=NC1c1ccc(F)cc1Br (stereo not shown) [Reference 1, GLS4, reference compound]			T½ ([3]; 1.0 μM, 0-120 min): 15.3 min; Clint (liver) ([3]; scale-up intrinsic clearance, scaling factor 2544.3): 115.3 mL/min/kg; Liver AUCinf/Dose ([4]; mice liver, PO): 69.2 ng·kg·h/g/mg; Liver Cmax/Dose ([4]; mice liver, PO): 5.1 kg·ng/mg/mL; IV AUCinf/Dose [4, 6]: 232.5 ng·kg·h/mg/mL; IV Cl [4, 6]: 73.9 mL/min/kg; PO AUCinf/Dose ([4]; mice plasma, PO): 17.3 ng·kg·h/mg/mL; PO Cmax ([4]; mice plasma, PO, dose per compound in table (5.28-9.95 mg/kg)): 14.5 ng/mL; F ([4]; mice, PO vs IV): 7.5%
CCOC(=O)C1=C(CN2CCN3C(=S)N([C@H]4CC[C@@H](C(=O)O)C4)CC3C2)NC(c2nccs2)=N[C@H]1c1cccc(F)c1C (single isomer, unassigned) [Compound 24D]	35	9400	
CCOC(=O)C1=C(CN2CCN3C(=S)N(C[C@@H](C)C(=O)O)C[C@@H]3C2)NC(c2ncoc2C)=NC1c1cccc(F)c1C (single isomer, unassigned) [Compound 32B, 3-(7-((5-(Ethoxycarbonyl)-6-(3-fluoro-2-methylphenyl)-2-(5-methyloxazol-4-yl)-3,6-dihydropyrimidin-4-yl)methyl)-3-thioxohexahydroimidazo[1,5-a]pyrazin-2(3H)-yl)-2-methylpropanoic acid]	27.4	42500	
COC(=O)C1=C(CN2CCN3C(=S)N(CC(C)(C)C(=O)O)CC3C2)NC(c2nccs2)=NC1c1ccc(F)cc1Cl (single isomer, unassigned) [Compound 4A, 3-(7-((6-(2-chloro-4-fluorophenyl)-5-(methoxycarbonyl)-2-(thiazol-2-yl)-3,6-dihydropyrimidin-4-yl)methyl)-3-thioxohexahydroimidazo[1,5-a]pyrazin-2(3H)-yl)-2,2-dimethylpropanoic acid]	49	52800	
CCOC(=O)C1=C(CN2CCN3C(=S)N(CC(C)(C)C(=O)O)CC3C2)NC(c2nccs2)=N[C@H]1c1cccc(F)c1C (single isomer, unassigned) [Compound 1B]	43	22400	
CCOC(=O)C1=C(CN2CCN3C(=S)N(CC4(C(=O)O)CC4)CC3C2)NC(c2nccs2)=N[C@H]1c1cccc(F)c1C (single isomer, unassigned) [Compound 9B]	0.7	14600	
CCOC(=O)C1=C(CN2CCN3C(=S)N(C)C[C@@H]3[C@H]2C(=O)O)NC(c2nccs2)=N[C@H]1c1cccc(F)c1C (single isomer, unassigned) [Compound 35B]	1.1	46600	
CCOC(=O)C1=C(CN2CCN3C(=S)N(CC(C)C(=O)O)C[C@@H]3C2)NC(c2nccs2)=N[C@H]1c1cccc(F)c1C (single isomer, unassigned) [Compound 27B]	2.6	25300	
CCOC(=O)C1=C(CN2CCN3C(=NC#N)N(CC(C)(C)C(=O)O)CC3C2)NC(c2nccs2)=N[C@H]1c1cccc(F)c1C (stereo partly drawn) [Compound 2, 3-(3-(cyanoimino)-7-(((S)-5-(ethoxycarbonyl)-6-(3-fluoro-2-methylphenyl)-2-(thiazol-2-yl)-3,6-dihydropyrimidin-4-yl)methyl)hexahydroimidazo[1,5-a]pyrazin-2(3H)-yl)-2,2-dimethylpropanoic acid]			EC50 [1, 7]: 49 nM; CC50 at 6 days [5]: 55400 nM
COC(=O)C1=C(CN2CCN3C(=S)N(CC(C)(C)C(=O)O)C[C@@H]3C2)NC(c2nccs2)=N[C@H]1c1cccc(F)c1Cl (single isomer, unassigned) [Compound 20A, 3-(7-((6-(2-chloro-3-fluorophenyl)-5-(methoxycarbonyl)-2-(thiazol-2-yl)-3,6-dihydropyrimidin-4-yl)methyl)-3-thioxohexahydroimidazo[1,5-a]pyrazin-2(3H)-yl)-2,2-dimethylpropanoic acid]			EC50 [1, 7]: 3.5 nM; CC50 at 6 days [5]: 16400 nM
CCOC(=O)C1=C(CN2CCN3C(=S)N(CC(C)(C)C(=O)O)C[C@@H]3C2)NC(c2nccs2)=N[C@@H]1c1ccc(F)nc1C (single isomer, unassigned) [Compound 37, 3-(7-((5-(ethoxycarbonyl)-6-(6-fluoro-2-methylpyridin-3-yl)-2-(thiazol-2-yl)-3,6-dihydropyrimidin-4-yl)methyl)-3-thioxohexahydroimidazo[1,5-a]pyrazin-2(3H)-yl)-2,2-dimethylpropanoic acid]			EC50 [1, 7]: 100 nM; CC50 at 6 days [5]: ≥ 100000 nM
